For 88 compounds, melting point results are on record in a melting point compilation (Tetko et al.; mined from patent text by program, amines drawn as free bases though some values may be those of a salt).

In turn, `CCSc1ccc(-c2cncnc2)c2c1C(=O)CC(C)C2` (stereo not drawn) showed a melting point of 168 to 171 °C.
Under `CS(=O)(=O)c1ccc(-n2nc(C(F)(F)F)cc2-c2ccc(-c3ccsc3)cc2)cc1` stands 154 to 155 °C.
The compound `CN(C)c1ccc(C2(c3ccc(N(C)C)cc3N(C)C)OC(=O)c3c(Cl)c(Cl)c(Cl)c(Cl)c32)cc1` (stereo not drawn) came in with a melting point of 227 to 229 °C.
In the case of `N#Cc1cnn(-c2ccc(Cl)cc2Cl)c1C(F)(F)F` it was 83 to 85 °C; in that of `CCCCCCCCCCCCCCCCOC(=O)Nc1ccc(NC(=O)NS(=O)(=O)c2ccc(OC)cc2)cc1`, 185 °C.
`O=C(c1ccccc1)c1cc([N+](=O)[O-])ccc1N(Cc1ccccc1)C(=O)CBr` yielded a melting point of 149 °C.
In the case of `CN1C(=O)N(c2ccc(C(=O)O)cc2)S(=O)(=O)c2ccc(OCC3CCCCC3)cc21` it was 240 to 241 °C; in that of `CN1CCc2ccc(C(=O)CCC(=O)N3CCC(c4ccc(Cl)cc4)CC3)cc2C1`, 139 to 140 °C; in that of `COc1nsc(NC(=O)CBr)n1`, 198 to 199 °C.
In the case of `Oc1nc(-c2ccccc2)cs1` it was 194 to 197 °C; in that of `CSc1ccc(CSc2cccc(C(=O)Nc3ccc(C#N)cn3)c2)cc1`, 161 to 162 °C; in that of `c1csc(CNc2nc(-n3ccnc3)nc3ccccc23)c1`, 234 to 235 °C.
Under `COC(=O)COc1cccc2c(CNC(=O)COc3ccccc3)coc12` stands 101 to 102 °C; under `COc1c(F)c(NCc2ccccc2)c(F)c(OC)c1C(=O)O`, 85 to 86 °C.
Turning to `O=C(O)CC(=O)Oc1cccc(-c2cn3c(n2)sc2ccccc23)c1`, the melting point lay in the range of 159 to 161 °C.
In the case of `CCCCCCCCCCOC(=O)CN(CP(=O)(ONC1CCCCC1)ONC1CCCCC1)C(=O)C(F)(F)F` it was 79.5 to 82.5 °C.
Under `CCC(=O)C(CCCOc1ccc(OCCCC(C(=O)CC)C(=O)CC)cc1)C(=O)CC` stands 57 to 58 °C; under `CS(=O)(=O)Nc1ccc2c(c1)C(=O)CC1(CCN(CCc3ccc(Cl)nc3)CC1)O2`, 213 to 215 °C; under `COc1ccc2[nH]c(=O)nc(C)c2c1OC`, 248 to 249 °C.
For the compound `CCCCCS(=O)(=O)NC(=O)CCc1ccc(OC(C)C)cc1OCc1ccc(Cl)cc1Cl`, the melting point was 120 °C.
Under `Cc1ccc2c(c1)oc1c(C(=O)NN3CCOCC3)nn(-c3ccc(Cl)cc3Cl)c12` stands 178 to 180 °C.
Under `CSC(SC)=C1C(=O)OC(C)(C)OC1=O` stands 114 to 118 °C; under `Cn1c(-c2ccccc2)cc(=O)c2cc(C(=O)O)ccc21`, over 30 °C.
For the compound `CC12CC(N3CCCCC3)C(O)CC1CCC1C2CCC2(C)C(O)C(N3CCC4(CC3)OCCO4)CC12` (stereo not drawn), the melting point lay within 183 to 185 °C.
`OCc1ccc2c(Br)cccc2c1` came in with a melting point of 76 to 77 °C.
`CCOC(=O)C[C@H](O)COC(c1ccccc1)(c1ccccc1)c1ccccc1` came in with a melting point of 98.8 to 101 °C.
Compound `COc1c2c(nc3ccccc13)CCNCC2` came in with a melting point of 112 °C.
In the case of `CC1=NN(C)C(=O)C1(Cl)C(Cl)c1ccc(Cl)cc1Cl` (stereo not drawn) it was 113 to 115 °C.
Under `COc1cc2c(cn1)OCC21C(=O)N(CC2CCCO2)c2ccccc21` (stereo not drawn) stands over 250 °C; under `COC(=O)c1ccc(=O)n(-c2ccccc2)c1`, 100 to 105 °C; under `CC1=C(CC#N)CCc2ccccc21`, 48 to 49 °C.
In the case of `CCOC(=O)NC(=O)Nc1ccc(Cl)cc1C(=O)c1ccccc1F` it was 208 to 209 °C.
For the compound `COc1cc(OC)c2c(=O)[nH]c(-c3ccc4[nH]c(CN(C)C)cc4c3)nc2c1`, the melting point lay within 187 to 188 °C.
In the case of `CCN(Cc1cc(Cl)ccc1OCC1CC1)c1ccc(C(=O)NS(=O)(=O)C(F)(F)F)nn1` it was 150 °C; in that of `CC(=O)Nc1nc(CCc2ccc(NC(=NC(=O)OC(C)(C)C)NC(=O)OC(C)(C)C)cc2)c(C(=O)O)s1`, 222 to 223 °C.
`CCOC(=O)c1nc(-c2ccc(Cl)c(OC)c2F)cc(N)c1Cl` came in with a melting point of 74 to 75 °C.
In the case of `COC(=O)C(Cc1cc([N+](=O)[O-])ccc1Cl)C(=O)OC` it was 72 to 74 °C; in that of `Oc1ccc(Nc2nc(NCc3ccco3)nc(Nc3ccc4[nH]ccc4c3)n2)cc1`, 258 to 260 °C.
`O=C(NCc1ccccc1)c1ccccc1-c1ccccc1CNS(=O)(=O)c1cccc(C(F)(F)F)c1`: the melting point amounted to 126 °C.
`CC(C)(C)OC(=O)CN(Cc1ccccc1)S(=O)(=O)c1ccc2c(Cl)cnc(Cl)c2c1` displayed a melting point of 134 to 136 °C.
The compound `CC(C)Oc1cccc(NC(=O)OC(C)(C)C)c1` returned a melting point of 79 to 81 °C.
Under `C#CC1(O)CCN(C(C)=O)CC1` stands 132 to 134 °C; under `Cc1ccc(S(=O)(=O)Oc2ccc(S(=O)(=O)C3=C(C(C)C)OCC3)cc2)cc1`, 103 °C; under `Cc1cc(-c2cc(O)c(SCCc3ccccc3)c(=O)o2)ccc1OCc1ccccn1`, 75 to 77 °C.
On to `CC1(C)CC2(NC(=O)NC2=O)c2ccccc2O1` (stereo not drawn), for which the melting point lay within 233 to 235 °C.
In the case of `CCN(CC)CCC1CCc2cc(O)ccc2C1` (single isomer, unassigned; (+)) it was 102 to 104 °C; in that of `Oc1ccc(OCc2ccccc2)c(F)c1`, 80 to 82 °C; in that of `CC1(C)CCC(C)(C)c2c(OCc3ccc(F)cc3)cc(C(O)c3ccc4cc(C(=O)O)ccc4c3)cc21` (stereo not drawn), 212 °C.
In the case of `O=C(OCc1ccccc1)N1CCC2(CC1)CC(=O)N(OC[N+](=O)[O-])C2=O`, the melting point was in the range of 137 to 139 °C.
Under `CC12CC(O)C3c4ccccc4C(=O)CC3C1CCC2O` (stereo not drawn) stands 205 to 208 °C.
As for `CC(C)C(=O)C[C@@H](O)C(=O)O`, the melting point lay within 67 to 68 °C.
Under `CONC(=O)Nc1ccc(-c2sc3c(c2CN(C)C(C)(C(=O)O)c2ccccc2)c(=O)n(-c2ccccc2)c(=O)n3Cc2c(F)cccc2F)cc1` (stereo not drawn) stands 147 to 149 °C; under `CSc1nn2c(N)cc(Cl)nc2c1S(=O)(=O)c1ccccc1`, over 230 °C.
As for `O=c1[nH]c2cc(Sc3cccc4cnccc34)c([N+](=O)[O-])cc2s1`, the melting point was over 270 °C.
Under `Cn1c(C(F)(F)C(F)(F)F)cc(=O)n(-c2cc(C(=O)O)c(Cl)cc2F)c1=O` stands 229 to 231 °C; under `CC1(c2ccc(F)cc2)CN(Cc2ccc(COc3cccc4c3CN(C3CCC(=O)NC3=O)C4=O)cc2)CCO1` (stereo not drawn), 118 to 120 °C.
In the case of `COc1cccc(-c2nc(N)ncc2-c2ccc(=O)n(C(C)C)n2)c1` it was 211 °C; in that of `Cc1ccc(OCC2CN=C(N)O2)c(C)c1` (stereo not drawn), 116 °C.
Under `CC1c2ccccc2C=Cn2c1n[nH]c2=O` (stereo not drawn) stands 119 to 120 °C.
In turn, `Brc1ccc(C2(Cn3cncn3)OCCO2)cc1` gave a melting point of 136 °C.
Turning to `NCc1nnc(-c2ncn3c2[C@@H]2CCCN2C(=O)c2sccc2-3)o1`, the melting point lay within 214 to 216 °C.
`CCCCCCOc1ccc(NC(=O)NCCC(C)(C)C)cc1` came in with a melting point of 103 to 104 °C.
Under `Cc1cc(OCCN2CCOCC2)nn1-c1ccc2ccc(O)cc2c1` stands 103 to 107 °C; under `CCCNC(=O)C(C)Cc1ccc2c(c1)c(Cc1ccc(C(=O)O)cc1OC)cn2CCC` (single isomer, unassigned; (-)), 85 to 93 °C.
Under `CCCCCCCCCC(C)NC(=O)C=Cc1cccc([N+](=O)[O-])c1` (stereo not drawn) stands 81 to 83 °C; under `Cn1ncnc1COc1nn2c(-c3cnccn3)nncc2c1-c1ccccc1F`, 179 to 180 °C; under `O=C1c2c(Cl)cccc2-n2cnc(-c3noc(CCl)n3)c2[C@@H]2CCN12`, 211 to 212 °C.
Under `O=C(C1CCN(CCO)CC1)N1CCN2C(=O)OC(c3ccccc3)(c3ccccc3)C2C1` (stereo not drawn) stands 160 to 162 °C.
Compound `COC1=C(OC)C(=O)C(CCCCCCCCCC(=O)N[C@@H](CCCCN)C(=O)O)=C(C)C1=O` gave a melting point of 107 °C.
Under `CS(=O)(=O)N(CCCl)N(C(=O)NCCCl)S(C)(=O)=O` stands 96 to 97.5 °C; under `COC(=O)c1ccc(CN2CCN(c3nc(C)c(C(C)=O)s3)C2=O)cc1`, 174 to 175 °C; under `C=C(Cl)Cc1c(Cl)nc(NC=O)nc1Cl`, 113 to 115 °C.
Regarding `CC1CC=C(N(C)c2ccccc2)c2ncc(C(=O)O)c(=O)n21` (stereo not drawn), the melting point lay within 170 to 171 °C.
In the case of `C=CCc1cc(C)c2c(c1O)C(=O)CC2` it was 41 to 45 °C.
In the case of `Cc1oc(-c2ccccc2)nc1COc1ccccc1CCCC1SC(=O)NC1=O` (stereo not drawn) it was 173 to 174 °C; in that of `O=C(NNc1ccc(NC(=S)Nc2ccccc2)cc1)C(F)(F)F`, 172 to 174 °C.
In the case of `ON=c1cc(-c2cn3cccc3cn2)oc2ccc(OCCc3ccc(F)cc3)cc12` it was 248 to 250 °C.
`CC(=O)Nc1nc(-c2cc(Cl)nc(Cl)c2)cs1` displayed a melting point of 301 °C.
Under `C#CCCCOc1ccc(/C=C/C(=O)Nc2ccccc2C(=O)O)cc1OC` stands 166 to 168 °C; under `O=C(O)CN(C(=O)OCc1ccccc1)C1CCCC1`, 110 °C.
Under `CCCc1nc2c(N)nc3cc(-c4cccc(S(C)(=O)=O)c4)ccc3c2s1` stands 242 to 245 °C.
Under `CC1(Cn2nc(-c3ccccc3)oc2=O)Cn2cc([N+](=O)[O-])nc2O1` (stereo not drawn) stands 225 to 227 °C; under `OC(c1ccccc1)c1ccc2c(c1)N1CCN=C1S2` (stereo not drawn), 175 °C; under `COC(=O)c1ccccc1C1NC(=S)C(C)(C(C)C)N1` (stereo not drawn), 115 to 121 °C.
With `COCCCn1c(C(N)=O)cc2c3c(c(-c4ccccc4Cl)cc21)C(=O)NC3=O`, the melting point is 260 to 261 °C.
As to `CNC(=O)N(O)Cc1cccc(Nc2ccccc2C(=O)OC)c1Cl`, the melting point was 143 to 145 °C.
Under `Cc1noc(NS(=O)(=O)c2ccc(Br)cc2)c1Br` stands 146 to 149 °C; under `O=C1Nc2ccc(F)c(F)c2C1c1ncnc2nn(C3CCCC3)cc12` (stereo not drawn), 280 to 284 °C.

The melting point is the temperature of the solid-liquid transition.
